{
  "source": "patent US7910692B2",
  "about": "“Immunogenic peptides and methods of use” (The United States of America as represented by the …, priority 2006, dated 2011)",
  "key": {"HLA-A2 molecules": {"biological_target": "T1, HLA-A2 molecules (Homo sapiens, UniProt P04439, D140Y/D185E/D98H/E176V/E277Q/G131W/G231S/I119V/I121R/I166T/I218V/L300P/L318F/N151K/N90K/P208A/P217A/Q86G/Q94H/R138H/R169H/T345S)", "T1 construct": "expressed in transfected cells; host or cells: T2 cells (provided by Dr. Peter Cresswell)", "assay": "Peptide binding to HLA-A2: upregulation of HLA-A2 expression on T2 cells, flow cytometry", "settings": "for T2 binding, mean fluorescence intensity: T2 cells; for binding to HLA-A2 compared with native peptides: all concentrations, 0 to 25 μg/ml (FIG. 1A)", "description": "The primary amino acid sequence of human PAGE4 was analyzed for consensus motifs for novel HLA-A2 binding peptides. Two 10-mer peptides (P16-25 designated as P16 and P59-68 designated as P59) and one 9-mer peptide (P84-92 designated as P84) were identified and evaluated (Table 1). […] For this reason, five different analogues of native peptides were synthesized and were investigated for their binding ability to HLA-A2-positive T2 cells along with the native P16, P59 and P84 peptides. A MUC-1 peptide and a CEA HLA-A3 binding peptide (CAP-7) were used as a positive and negative control, respectively (Tsang et al., J Natl Cancer Inst 1995; 87:982-90)."}, "peptide-HLA-A2 complexes": {"biological_target": "T2, peptide-HLA-A2 complexes (Homo sapiens, UniProt P04439, D140Y/D185E/D98H/E176V/E277Q/G131W/G231S/I119V/I121R/I166T/I218V/L300P/L318F/N151K/N90K/P208A/P217A/Q86G/Q94H/R138H/R169H/T345S)", "T2 construct": "expressed in transfected cells; host or cells: T2 cells (provided by Dr. Peter Cresswell)", "assay": "Stability of peptide-HLA-A2 complexes on T2 cells after brefeldin A block", "assay_type": "binding", "settings": "8-hour observation period; 12.5 μg/ml (FIG. 1B)", "description": "FIGS. 1A and 1B are line graphs showing the binding of native PAGE4 peptides and their agonist peptides to HLA-A2 molecules. Peptides were analyzed for binding to T2 cell line as described in Example 1. For the results presented in FIG. 1A, peptides were used at concentrations of 0 to 25 μg/ml. P16 peptide (∘), P16-1 (●), P16-2 (▴), P84 (□) and P84-1 (▪), positive control (MUC-1 peptide) (+) and negative control (HLA-A3 binding peptide) (X). Results are expressed in mean fluorescence intensity (MFI). FIG. 1B presents a comparison of the stability of HLA-A2 peptide complexes of PAGE4 native and agonist peptides. T2 cells were incubated overnight with P16 peptide (∘), P16-1 (●), P16-2 (▴), P84 (□) and P84-1 (▪) peptides at a concentration of 12.5 μg/ml and then were washed free of unbound peptide and incubated with brefeldin A to block delivery of new class 1 molecules to the cell surface. At the indicated times, cells were stained for the presence of surface peptide-HLA-A2 complexes. Results are expressed in relative percentage of binding compared with 100% at time 0.\nThe analogues of P16 were designated P16-1 and P16-2, and the analogue of P84 was designated as P84-1. These peptides bound to HLA-A2 at higher levels than their native peptides. Studies were then conducted to examine the ability of these peptides to bind HLA-A2 at various concentrations. […] Studies were then undertaken to examine the stability of the peptide-MHC complex for the peptides P16, P84, P16-1, P16-2 and P84-1. Each peptide was incubated with T2 cells overnight, the unbound peptides were washed off, and the cells were then incubated with Brefeldin A to block delivery of new class I molecules to the cell surface. Cells were analyzed for the presence of peptide-HLA-A2 complexes at various time points."}, "T-A-P16 cells": {"test_system": "T-A-P16 cells", "assay": "Cytokine production by T-A-P16 cells stimulated with native and agonist P16 peptides (FIG. 2)", "assay_type": "cell-based, human", "settings": "vs native P16 or P16-2 peptide; 12.5 ul/ml; effector-to-APC 1:3; 24-hour supernatants (FIG. 2)", "description": "FIG. 2 is a set for bar graphs illustrating the ability of autologous B cells pulsed with native and agonist P16 peptides to induce IFN-γ, Lymphotactin, Granzyme B, TNF-α and IL-2 production by T cell line derived from the native peptide (T-A-P16). T-A-P16 cells were used as effectors at in vitro stimulation (IVS-4). T cells were stimulated with irradiated autologous B cells pulsed with different PAGE4 analogues at a concentration of 12.5 ul/ml, and an effector-to-APC ratio of 1:3. Twenty-four-hour culture supernatants were collected and screened for the secretion of IFN-γ, Lymphotactin, Granzyme B, TNF-α and IL-2 using ELISA assay.\nDetection of Cytokines: Supernatants of T cells stimulated for […] with peptide-pulsed autologous EBV-transformed B cells, in IL-2-free medium at various peptide concentrations, were screened for secretion of IFN-γ using an ELISA kit (BioSource International, Camarillo, Calif.) and lymphotactin using an ELISA assay (36). Granzyme B, TNF-α and IL-2 were determined by using a Cytokines and Chemokines-Multiplex Kit (Meso Scale Discovery, Geitherburg, Md.). The results were expressed in pg/ml.\nStudies were then undertaken to examine the ability of the P16, P16-1, P16-2 peptides to activate the T-A-P16 cells, which were generated with the P16 native peptide. […] The P16-1 agonist was thus chosen for further study."}, "T2 cells": {"test_system": "T2 cells", "assay": "111In release assay: lysis of peptide-pulsed T2 targets by PAGE4-specific T-cell lines", "assay_type": "cell-based", "settings": "for % lysis (±SD) by T-A-P16 / % lysis (±SD) by T-B-P16-1: 16-hour 111In release, peptide 12.5 μg/ml, IVS4", "description": "Cytotoxic Assay: Cytotoxicity assays were used as described previously (Tsange et al., J Natl Cancer Inst 1995; 87:982-90). A 6-hour or 16-hour ^111In release assay was used to determine T-cell mediated killing. Target cells were labeled with ^111In oxine (Amersham Health, Silver Spring, Md.) for 20 min at room temperature, and used at 3×10^3 cells per well, in 96-well rounded-bottom culture plates. ^111In released was measured by gamma counting. Spontaneous release was determined by incubating the target cells with medium alone, and complete lysis by incubating the target cells with 2.5% Triton X-100. Specific lysis (%)=[(observed release−spontaneous release)/(complete release−spontaneous release)]×100.\nTo examine the ability of the P16 and P16-1 peptides to activate the PAGE4-specific T-cells, T-A-P16 cells were subsequently analyzed for the ability to lyse peptide-pulsed targets."}, "T-B-P16-1 cells": {"test_system": "T-B-P16-1 cells", "assay": "CD107a mobilization assay", "assay_type": "cell-based, human", "settings": "T-B-P16-1 cells with T2 cells pulsed with 12.5 μg/ml peptide; 5 hours (FIG. 3)", "description": "The expression of CD107a on the cell surface of CD8+ T cells and correlation with cytotoxic activity by PAGE4-specific T-cell line (T-B-P16-1) against P16-1 or P16 pulsed T2 cells. 0.5×10^6 effector cells/ml were incubated (FIG. 3a) alone, (FIG. 3b) with T2 cells without peptide, (FIG. 3c) with T2 cells pulsed with 12.5 μg/ml of P16 peptide, or (FIG. 3d) with T2 cells pulsed with 12.5 μg/ml of P16-1 peptide. Results are expressed in % of CD107a positive and CD8 positive cells. Numbers of the upper right are % of specific lysis±SD.\nCD107a mobilization assay: The CD107a mobilization assay was performed as previously described (Rubio et al., Nat Med 2003; 9:1377-82). […] Samples were then fixed and the expression of CD107a on the cell surface of CD8^+ T cells was analyzed by flow cytometry.\nIn order to determine CTL degranulation which is a requisite process of perforin-granzyme mediated killing by activated CD8+ T cells, CD107a mobilization to the cell surface of CD8+ T cells was examined following activation with P16 or P16-1 peptides in addition to CTL assays. T-B-P16-1 cells were incubated with P16 native or P16-1 agonist peptide-pulsed T2 cells for 5 hours in the presence of monensin and analyzed for CD107a mobilization by flow cytometric analysis (FIG. 3). […]"}, "LNCaP cells": {"test_system": "LNCaP cells", "assay": "Cold target inhibition assay", "assay_type": "cell-based, human", "settings": "peptide-pulsed (12.5 μg/ml) unlabeled T2 cells; LNCaP:T2 1:10; E:T 15:1 (FIG. 5A)", "description": "For the results presented in FIG. 5A, ^111In labeled LNCaP cells and unlabeled T2 cells were used at a ratio of 1:10. T2 cells were incubated with or without P16-1 peptide (12.5 μg/ml) in serum-free medium for 2 hours at 37° C. prior to the addition of the T-A-P16-1 cells. For the results presented in FIG. 5B, anti-HLA-A2 antibody (10 μg/ml and 50 μg/ml) or 110 μg/ml of control IgG antibody were added to ^111In labeled LNCaP cells for 1 hour at 37° C. prior to the addition of the T-A-P16-1 cells. Results are expressed in percent specific lysis at effector-to-target ratio of 15:1. Bars=SD. Statistically significant (P<0.05, two tailed t test).\nTo confirm the specificity and HLA-A2 restriction of CTL cytolysis, LNCaP cells were used as target in a cold target inhibition assay. […] Moreover, to determine whether the lysis was HLA-A2 restricted, antibody blocking experiments were carried out."}},
  "data": [
    {"substance": "HLFGYSWYK [CAP-7 peptide, reference compound]", "values": [
      {"measurement": "T2 binding, mean fluorescence intensity", "setting": "HLA-A2 molecules; peptide 25 μg/ml", "result": 260, "unit": "MFI"}
    ]},
    {"substance": "KTPPNPKHA (XXPPNPKHX; (16)..(16) Xaa can be Gln or Tyr; listed as Homo sapiens) [Peptide P84]", "values": [
      {"measurement": "binding of native peptides to HLA-A2 molecules in the T2 assay", "setting": "HLA-A2 molecules; T2 assay", "result": "bound to HLA-A2 molecules"},
      {"measurement": "T2 binding, mean fluorescence intensity", "setting": "HLA-A2 molecules; peptide 25 μg/ml", "result": 270, "unit": "MFI"},
      {"measurement": "T2 binding, fold increase as compared with the negative control", "setting": "HLA-A2 molecules; peptide 25 μg/ml, vs CAP-7 negative control", "result": 1.04, "unit": "fold"}
    ]},
    {"substance": "P16-1: agonist analogue of P16; amino acids 16 to 25 of SEQ ID NO: 1, X1 glutamine, X2 leucine (QLAPDVVAFV; (16)..(16) Xaa can be Gln or Tyr; listed as Homo sapiens) [Peptide P16-1]", "values": [
      {"measurement": "binding to HLA-A2 compared with native peptides", "setting": "HLA-A2 molecules", "result": "higher levels"},
      {"measurement": "stability of peptide-HLA-A2 complexes compared with native peptide complexes", "setting": "peptide-HLA-A2 complexes", "result": "greater"},
      {"measurement": "IFN-γ, lymphotactin, Granzyme B, TNF-α and IL-2 production by T-A-P16 cells", "setting": "T-A-P16 cells", "result": "higher levels"},
      {"measurement": "% lysis (±SD) by T-A-P16", "setting": "T2 cells; effector T-A-P16, E:T 15:1", "result": "16.7 (0.9) %"},
      {"measurement": "% lysis (±SD) by T-A-P16", "setting": "T2 cells; effector T-A-P16, E:T 30:1", "result": "20.4 (1.9) %"},
      {"measurement": "lysis of peptide-pulsed T2 cells by T-A-P16 compared with P16-pulsed T2 cells", "setting": "T2 cells; effector T-A-P16, two E:T ratios", "result": "higher"},
      {"measurement": "% lysis (±SD) by T-B-P16-1", "setting": "T2 cells; effector T-B-P16-1, E:T 15:1", "result": "25.8 (0.6) %"},
      {"measurement": "% lysis (±SD) by T-B-P16-1", "setting": "T2 cells; effector T-B-P16-1, E:T 30:1", "result": "34.7 (0.04) %"},
      {"measurement": "lysis of peptide-pulsed T2 cells by T-B-P16-1 compared with P16-pulsed T2 cells", "setting": "T2 cells; effector T-B-P16-1, two E:T ratios", "result": "to a greater extent"},
      {"measurement": "CD8+ T cells expressing surface CD107a compared with P16 native peptide", "setting": "T-B-P16-1 cells", "result": "Higher number"},
      {"measurement": "decrease in CTL activity of T-A-P16-1 cells against labeled LNCaP cells", "setting": "LNCaP cells", "result": 79.6, "unit": "%"}
    ]},
    {"substance": "P16-2: analogue of P16; amino acids 16 to 25 of SEQ ID NO: 1, X1 tyrosine, X2 leucine (YLAPDVVAFV; (16)..(16) Xaa can be Gln or Tyr; listed as Homo sapiens) [Peptide P16-2]", "values": [
      {"measurement": "binding to HLA-A2 compared with native peptides", "setting": "HLA-A2 molecules", "result": "higher levels"},
      {"measurement": "stability of peptide-HLA-A2 complexes compared with native peptide complexes", "setting": "peptide-HLA-A2 complexes", "result": "more stable"}
    ]},
    {"substance": "P84-1: analogue of P84; amino acids 84-92 of SEQ ID NO: 1, X6 tyrosine, X7 leucine, X8 valine (YLPPNPKHV; (16)..(16) Xaa can be Gln or Tyr; listed as Homo sapiens) [Peptide P84-1]", "values": [
      {"measurement": "binding to HLA-A2 compared with native peptides", "setting": "HLA-A2 molecules", "result": "higher levels"},
      {"measurement": "stability of peptide-HLA-A2 complexes compared with native peptide complexes", "setting": "peptide-HLA-A2 complexes", "result": "more stable"}
    ]}
  ]
}
